Test results reported in the NIST ThermoML archive (doi:10.1021/je700618y).
± gives the expanded uncertainty stated by the source.

Tests used:
[1] = 298.15 K, 101.33 kPa, Liquid; for viscosity: Capillary tube (Ostwald / Ubbelohde) method
[2] = refractive index (Na D-line) (dimensionless); details: 298.15 K; 101.33 kPa; Liquid; Standard Abbe refractometry
[3] = xn = mol fraction of the nth substance listed; details: 298.15 K, 101 kPa, Liquid; for viscosity: Capillary tube (Ostwald / Ubbelohde) method; for mass density: Vibrating tube method
[4] = refractive index (Na D-line) (dimensionless); xn = mol fraction of the nth substance listed; details: 298.15 K, 101 kPa, Liquid, Standard Abbe refractometry

CCO [ethanol]
Details | mass density [kg/m3] | refractive index | viscosity [mPa·s]
[1] | 785.12 ± 0.24 | – | 1.076 ± 0.012
[2] | – | 1.35937 ± 0.00031 | –

CCO [ethanol] + O
Details | mass density, [3] [kg/m3] | refractive index, [4] | viscosity, [3] [mPa·s]
x2 = 0.048 | 791.06 ± 0.13 | 1.36013 ± 0.00031 | 1.158 ± 0.013
x2 = 0.1116 | 799.08 ± 0.13 | 1.361 ± 0.00031 | 1.261 ± 0.014
x2 = 0.1599 | 805.32 ± 0.12 | 1.3615 ± 0.00031 | 1.326 ± 0.015
x2 = 0.1761 | 807.44 ± 0.12 | 1.36168 ± 0.00031 | 1.36 ± 0.016
x2 = 0.2668 | 820.06 ± 0.12 | 1.36247 ± 0.00031 | 1.496 ± 0.017
x2 = 0.301 | 825.06 ± 0.12 | 1.36266 ± 0.00031 | 1.556 ± 0.018
x2 = 0.3994 | 840.69 ± 0.12 | 1.36295 ± 0.00031 | 1.726 ± 0.02
x2 = 0.497 | 858.26 ± 0.12 | 1.3628 ± 0.00031 | 1.932 ± 0.022
x2 = 0.6122 | 882.42 ± 0.12 | 1.36176 ± 0.00031 | 2.161 ± 0.024
x2 = 0.7116 | 907.85 ± 0.13 | 1.35974 ± 0.00031 | 2.385 ± 0.027
x2 = 0.7774 | 926.61 ± 0.13 | 1.35727 ± 0.00031 | 2.353 ± 0.027
x2 = 0.8145 | 937.62 ± 0.14 | 1.3554 ± 0.00031 | 2.366 ± 0.027
x2 = 0.8529 | 949.42 ± 0.13 | 1.35243 ± 0.00031 | 2.193 ± 0.025
x2 = 0.8967 | 960.95 ± 0.13 | 1.34783 ± 0.00032 | 1.92 ± 0.022
x2 = 0.9481 | 976.77 ± 0.13 | 1.34063 ± 0.00032 | 1.432 ± 0.017

COS(=O)(=O)[O-].C[N+](CCO)(CCO)CCO [tris(2-hydroxyethyl) methylammonium methylsulfate]
Details | refractive index | viscosity [mPa·s]
[1] | – | 1236 ± 74
[2] | 1.48489 ± 0.001 | –

Details | mass density [kg/m3]
[1], Vibrating tube method | 1344.13 ± 9.9

COS(=O)(=O)[O-].C[N+](CCO)(CCO)CCO [tris(2-hydroxyethyl) methylammonium methylsulfate] + CCO
Details | mass density, [3] [kg/m3] | refractive index, [4] | viscosity, [3] [mPa·s]
x1 = 0.0482 | 876.74 ± 0.61 | 1.3818 ± 0.00035 | 2.26 ± 0.032
x1 = 0.0981 | 951.17 ± 0.55 | 1.39899 ± 0.00036 | 4.523 ± 0.058
x1 = 0.1509 | 1014.1 ± 0.48 | 1.41373 ± 0.00038 | 8.351 ± 0.11
x1 = 0.1994 | 1061.07 ± 0.51 | 1.42476 ± 0.0004 | 13.32 ± 0.17
x1 = 0.242 | 1097.16 ± 0.6 | 1.43322 ± 0.00042 | 19.62 ± 0.26
x1 = 0.2922 | 1132.75 ± 0.78 | 1.44083 ± 0.00045 | 29.16 ± 0.41
x1 = 0.3882 | 1187.8 ± 1.3 | 1.45307 ± 0.00052 | 58.72 ± 0.88
x1 = 0.4841 | 1229.34 ± 2.1 | 1.46222 ± 0.00059 | 110.8 ± 2.3
x1 = 0.5923 | 1264.46 ± 3.2 | 1.4695 ± 0.00068 | 204.3 ± 5.8
x1 = 0.6288 | 1273.93 ± 3.6 | 1.47153 ± 0.00072 | 247.6 ± 7.8
x1 = 0.6881 | 1288.67 ± 4.4 | 1.47511 ± 0.00077 | 333.6 ± 12
x1 = 0.7379 | 1299.19 ± 5.1 | 1.47666 ± 0.00081 | 430.4 ± 18
x1 = 0.7878 | 1309.46 ± 5.9 | 1.47867 ± 0.00085 | 518.1 ± 23
x1 = 0.8379 | 1318.78 ± 6.7 | 1.48018 ± 0.0009 | 657.1 ± 32
x1 = 0.8738 | 1324.39 ± 7.3 | 1.48134 ± 0.00093 | 775.7 ± 40
x1 = 0.9203 | 1331.87 ± 8.2 | 1.48278 ± 0.00097 | 902.1 ± 49

COS(=O)(=O)[O-].C[N+](CCO)(CCO)CCO [tris(2-hydroxyethyl) methylammonium methylsulfate] + O
Details | mass density, [3] [kg/m3] | refractive index, [4] | viscosity, [3] [mPa·s]
x1 = 0.0478 | 1129.13 ± 1 | 1.38887 ± 0.00046 | 2.341 ± 0.027
x1 = 0.0967 | 1195.06 ± 0.65 | 1.41769 ± 0.00038 | 5.054 ± 0.071
x1 = 0.1939 | 1258.48 ± 0.59 | 1.44581 ± 0.00039 | 16.79 ± 0.21
x1 = 0.2421 | 1275.98 ± 0.77 | 1.4539 ± 0.00041 | 27 ± 0.35
x1 = 0.2894 | 1288.49 ± 0.94 | 1.45949 ± 0.00044 | 41.22 ± 0.57
x1 = 0.3872 | 1306.02 ± 1.5 | 1.46758 ± 0.00051 | 86.07 ± 1.4
x1 = 0.4858 | 1317.49 ± 2.3 | 1.47335 ± 0.00059 | 159.5 ± 3.9
x1 = 0.6064 | 1327.14 ± 3.6 | 1.47587 ± 0.00069 | 290.1 ± 9.8
x1 = 0.6698 | 1330.96 ± 4.4 | 1.47878 ± 0.00074 | 390.7 ± 15
x1 = 0.7822 | 1336.36 ± 6 | 1.4813 ± 0.00085 | 569 ± 26
x1 = 0.867 | 1339.64 ± 7.3 | 1.4827 ± 0.00092 | 756.2 ± 38
x1 = 0.9398 | 1342.07 ± 8.7 | 1.48341 ± 0.00099 | 960.7 ± 53
